Assay results: patent US12612363B2, “Recrystallisation of 5-methoxy-N,N-dimethyltryptamine(5-MeO-DMT)” (GH RESEARCH IRELAND LIMITED, priority 2019, dated 2026)
Converted amounts (≈) assume the structure as drawn.

Test: Solubility screen of 5-MeO-DMT in solvents at room temperature and reflux
Details: for solubility: thermodynamic from solid
Procedure: A solubility screen of 5-MeO-DMT was performed on a number of solvents at both room temperature and reflux.

Question: With COc1ccc2[nH]cc(CCN(C)C)c2c1 [5-MeO-DMT, 5-Methoxy-N,N-dimethyltryptamine] as the molecule, how does the solubility (2-methyltetrahydrofuran, organic solvent or mixture, 5-MeO-DMT Solubility Ambient, solvent 2-Methyltetrahydrofuran (2-MeTHF), ambient (room temperature)) read?
Answer: The solubility was 250 mg/mL (≈ 1150 mM).

Question: What about the solubility (acetone, organic solvent or mixture, 5-MeO-DMT Solubility Ambient, solvent Acetone, ambient (room temperature)) of the same molecule?
Answer: The solubility was 530 mg/mL (≈ 2430 mM).

Question: What about the solubility (ethanol, organic solvent or mixture, 5-MeO-DMT Solubility Ambient, solvent Ethanol, ambient (room temperature)) of the same molecule?
Answer: The solubility was 340 mg/mL (≈ 1560 mM).

Question: What about the solubility (ethyl acetate, organic solvent or mixture, 5-MeO-DMT Solubility Ambient, solvent Ethyl Acetate, ambient (room temperature)) of the same molecule?
Answer: The solubility was 260 mg/mL (≈ 1190 mM).

Question: What about the solubility (heptanes, organic solvent or mixture, 5-MeO-DMT Solubility Ambient, solvent Heptanes, ambient (room temperature)) of the same molecule?
Answer: The solubility was < 50 mg/mL.

Question: And the solubility (heptanes, organic solvent or mixture, 5-MeO-DMT Solubility Reflux, solvent Heptanes, reflux)?
Answer: The solubility was < 50 mg/mL.

Question: And the “solubility (in words)” value (in MTBE at room temperature)?
Answer: Its value is “not observed to be soluble”.

Question: And the “solubility (in words)” value (in MTBE when the temperature of the solvent was increased)?
Answer: The value was “very soluble”.

Question: What about the “solubility (in words)” value (in heptanes) of the same molecule?
Answer: The value was “Poor solubility”.

Question: And the “solubility (in words)” value (in water)?
Answer: The value was “Poor solubility”.

Question: What about the solubility (isopropanol, organic solvent or mixture, 5-MeO-DMT Solubility Ambient, solvent Isopropanol (IPA), ambient (room temperature)) of the same molecule?
Answer: The solubility was 180 mg/mL (≈ 825 mM).

Question: What about the solubility (isopropyl acetate, organic solvent or mixture, 5-MeO-DMT Solubility Ambient, solvent Isopropyl acetate (IPAc), ambient (room temperature)) of the same molecule?
Answer: Its solubility is 210 mg/mL (≈ 962 mM).

Question: What about the solubility (methyl tert-butyl ether, organic solvent or mixture, 5-MeO-DMT Solubility Ambient, solvent Methyl tert-butyl ether (MTBE), ambient (room temperature)) of the same molecule?
Answer: The solubility was < 50 mg/mL.

Question: And the solubility (methyl tert-butyl ether, organic solvent or mixture, 5-MeO-DMT Solubility Reflux, solvent Methyl tert-butyl ether (MTBE), reflux)?
Answer: The solubility was 420 mg/mL (≈ 1920 mM).

Question: What about the “5-MeO-DMT Solubility Ambient (vols.)” value (solvent 2-Methyltetrahydrofuran (2-MeTHF), ambient (room temperature)) of the same molecule?
Answer: Its value is 4.0 vols.

Question: And the “5-MeO-DMT Solubility Ambient (vols.)” value (solvent Acetone, ambient (room temperature), volumes of solvent for complete dissolution of 200 mg)?
Answer: The value was 1.9 vols.

Question: And the “5-MeO-DMT Solubility Ambient (vols.)” value (solvent Ethanol, ambient (room temperature))?
Answer: Its value is 2.9 vols.

Question: What about the “5-MeO-DMT Solubility Ambient (vols.)” value (solvent Ethyl Acetate, ambient (room temperature)) of the same molecule?
Answer: The value was 3.9 vols.

Question: What about the “5-MeO-DMT Solubility Ambient (vols.)” value (solvent Heptanes, ambient (room temperature)) of the same molecule?
Answer: Its value is >20 vols.

Question: What about the “5-MeO-DMT Solubility Reflux (vols.)” value (solvent Heptanes, reflux) of the same molecule?
Answer: The value was >20 vols.

Question: What about the “5-MeO-DMT Solubility Ambient (vols.)” value (solvent Isopropanol (IPA), ambient (room temperature)) of the same molecule?
Answer: The value was 5.6 vols.

Question: What about the “5-MeO-DMT Solubility Ambient (vols.)” value (solvent Isopropyl acetate (IPAc), ambient (room temperature)) of the same molecule?
Answer: The value was 4.8 vols.

Question: What about the “5-MeO-DMT Solubility Ambient (vols.)” value (solvent Methyl tert-butyl ether (MTBE), ambient (room temperature)) of the same molecule?
Answer: Its value is >20 vols.

Question: And the “5-MeO-DMT Solubility Reflux (vols.)” value (solvent Methyl tert-butyl ether (MTBE), reflux)?
Answer: Its value is 2.4 vols.

Question: What about the “5-MeO-DMT Solubility Ambient (vols.)” value (solvent Toluene, ambient (room temperature)) of the same molecule?
Answer: The value was 5.1 vols.

Question: What about the “5-MeO-DMT Solubility Ambient (vols.)” value (solvent Water, ambient (room temperature)) of the same molecule?
Answer: Its value is >20 vols.

Question: What about the “5-MeO-DMT Solubility Reflux (vols.)” value (solvent Water, reflux) of the same molecule?
Answer: Its value is >20 vols.

Question: What about the solubility (toluene, organic solvent or mixture, 5-MeO-DMT Solubility Ambient, solvent Toluene, ambient (room temperature)) of the same molecule?
Answer: The solubility was 200 mg/mL (≈ 916 mM).

Question: What about the solubility (water, 100 °C, 5-MeO-DMT Solubility Reflux, solvent Water, reflux) of the same molecule?
Answer: Its solubility is < 50 mg/mL.

Question: And the solubility (water, 5-MeO-DMT Solubility Ambient, solvent Water, ambient (room temperature))?
Answer: The solubility was < 50 mg/mL.
